Patent US6355799B1, “Substituted benzene compounds, process for their preparation, and herbicidal and defoliant compositions containing them” (ISK Americas Incorporated, priority 1997, dated 2002)

Experiments:
Type in all cases: in vivo
[1] = test system: redroot pigweed (Amaranthus retroflexus, AMARE); assay: Pre-emerge test, greenhouse herbicide activity screening; details: pre-emerge, 14 days after application, scale 0-100
In short: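 Sandy loam pots; pre-emerge: sown 1 d pre-spray, surface-watered after, then bottom-watered. Post-emerge: sown 8–21 d before, 2–3 leaf stage, + 0.25% v/v NIS, bottom-watered. Acetone, 187 l/ha track spray, 15–1000 g ai/ha. 0–100 injury score, day 14.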

[2] = test system: barnyardgrass (Echinochloa crus-galli, ECHCG); assay: as above; details: pre-emerge, 14 days after application, scale 0-100
In short: (§1)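 Visual ratings on a 0-100 scale (0 no damage, 100 all plants dead) were taken at 14 days after treatment. Rates of 15-1000 g ai/ha in acetone, 187 l/ha, were sprayed onto soil one day after planting (pre-emerge) or onto 2-3 leaf plants with 0.25% v/v surfactant (post-emerge).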

[3] = test system: green foxtail (Setaria viridis, SETVI); assay: as above; details: pre-emerge, 14 days after application, scale 0-100
In short: as §1

[4] = test system: ivyleaf morningglory (Ipomoea hederacea, IPOHE); assay: as above; details: pre-emerge, 14 days after application, scale 0-100
In short: as §1

[5] = test system: johnsongrass (Sorghum halepense, SORHA); assay: as above; details: pre-emerge, 14 days after application, scale 0-100
In short: as §1

[6] = test system: lambsquarters (Chenopodium album, CHEAL); assay: as above; details: pre-emerge, 14 days after application, scale 0-100
In short: as §1

[7] = test system: large crabgrass (Digitaria sanguinalis, DIGSA); assay: as above; details: pre-emerge, 14 days after application, scale 0-100
In short: as §1

[8] = test system: sicklepod (Cassia obtusifolia, CASOB); assay: as above; details: pre-emerge, 14 days after application, scale 0-100
In short: as §1

[9] = test system: velvetleaf (Abutilon theophrasti, ABUTH); assay: as above; details: pre-emerge, 14 days after application, scale 0-100
In short: as §1

[10] = test system: field corn (Zea mays L., var. Dekalb 535, CORN); assay: Pre-emerge test, crop safety; details: pre-emerge, 14 days after application, scale 0-100
In short: (§2)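 Herbicidal damage is scored 0 (none) to 100 (complete plant death) two weeks after a simulated field spray. Rates span 15–1000 g ai/ha, delivered in acetone at 187 l/ha. For post-emergence treatments, plants have 2–3 leaves and the spray carries 0.25% v/v non-ionic surfactant.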

[11] = test system: upland rice (Oryza sp., var. Tebonnet, RICE); assay: Pre-emerge test, crop safety; details: pre-emerge, 14 days after application, scale 0-100
In short: as §2

[12] = test system: barnyardgrass (Echinochloa crus-galli, ECHCG); assay: Post-emerge test, greenhouse herbicide activity screening; details: post-emerge, 14 days after application, rating scale 0-100
In short: (§3)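 Compounds in acetone were track-sprayed at 15–1000 g ai/ha: pre-emergence onto soil sown the previous day, then top-watered to incorporate and later bottom-watered; post-emergence onto 2–3 leaf plants with 0.25% v/v surfactant, bottom-watered only. Ratings on a 0–100 phytotoxicity scale were taken at day 14.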

[13] = test system: green foxtail (Setaria viridis, SETVI); assay: as above; details: post-emerge, 14 days after application, rating scale 0-100
In short: as §3

[14] = test system: ivyleaf morningglory (Ipomoea hederacea, IPOHE); assay: as above; details: post-emerge, 14 days after application, rating scale 0-100
In short: as §3

[15] = test system: johnsongrass (Sorghum halepense, SORHA); assay: as above; details: post-emerge, 63 g ai/ha, 14 days after application, rating scale 0-100
In short: as §3

[16] = test system: lambsquarters (Chenopodium album, CHEAL); assay: as above; details: post-emerge, 14 days after application, rating scale 0-100
In short: as §3

[17] = test system: large crabgrass (Digitaria sanguinalis, DIGSA); assay: as above; details: post-emerge, 14 days after application, rating scale 0-100
In short: as §3

[18] = test system: redroot pigweed (Amaranthus retroflexus, AMARE); assay: as above; details: post-emerge, 14 days after application, rating scale 0-100
In short: as §3

[19] = test system: sicklepod (Cassia obtusifolia, CASOB); assay: as above; details: post-emerge, 14 days after application, rating scale 0-100
In short: as §3

[20] = test system: velvetleaf (Abutilon theophrasti, ABUTH); assay: as above; details: post-emerge, 14 days after application, rating scale 0-100
In short: as §3

[21] = test system: field corn (Zea mays L., var. Dekalb 535, CORN); assay: Post-emerge test, crop safety; details: post-emerge, 14 days after application, rating scale 0-100
In short: as §1

[22] = test system: upland rice (Oryza sp., var. Tebonnet, RICE); assay: Post-emerge test, crop safety; details: post-emerge, 14 days after application, rating scale 0-100
In short: as §1

In the case of `COc1c(C#N)cc(F)c(-n2c(=O)cc(C(F)(F)F)n(C)c2=O)c1NC(=O)C=Cc1ccccc1` [2-179], the “phytotoxicity rating AMARE” value ([1]; 63 g ai/ha) is reported as 100, the “phytotoxicity rating AMARE” value ([1]; 250 g ai/ha) is reported as 100 and the “phytotoxicity rating ECHCG” value ([2]; 63 g ai/ha) is reported as 20. For the same compound, the “phytotoxicity rating ECHCG” value ([2]; 250 g ai/ha) was 85, the “phytotoxicity rating SETVI” value ([3]; 63 g ai/ha) was 50 and the “phytotoxicity rating SETVI” value ([3]; 250 g ai/ha) was 90. The “phytotoxicity rating IPOHE” value ([4]; 63 g ai/ha) was 60, the “phytotoxicity rating IPOHE” value ([4]; 250 g ai/ha) was 70 and the “phytotoxicity rating SORHA” value ([5]; 63 g ai/ha) was 30. The “phytotoxicity rating SORHA” value ([5]; 250 g ai/ha) was 95, the “phytotoxicity rating CHEAL” value ([6]; 63 g ai/ha) was 100 and the “phytotoxicity rating CHEAL” value ([6]; 250 g ai/ha) was 100. The “phytotoxicity rating DIGSA” value ([7]; 63 g ai/ha) was 20, the “phytotoxicity rating DIGSA” value ([7]; 250 g ai/ha) was 95 and the “phytotoxicity rating CASOB” value ([8]; 63 g ai/ha) was 30. The “phytotoxicity rating CASOB” value ([8]; 250 g ai/ha) was 100, the “phytotoxicity rating ABUTH” value ([9]; 63 g ai/ha) was 100 and the “phytotoxicity rating ABUTH” value ([9]; 250 g ai/ha) was 100. For the same compound, the “phytotoxicity rating CORN (crop damage)” value ([10]; 63 g ai/ha) was 0, the “phytotoxicity rating CORN (crop damage)” value ([10]; 250 g ai/ha) was 10 and the “phytotoxicity rating RICE (crop damage)” value ([11]; 63 g ai/ha) was 20. For the same compound, the “phytotoxicity rating RICE (crop damage)” value ([11]; 250 g ai/ha) was 60, the ECHCG phytotoxicity rating ([12]; 63 g ai/ha) was 70 and the ECHCG phytotoxicity rating ([12]; 250 g ai/ha) was 50. For the same compound, the SETVI phytotoxicity rating ([13]; 63 g ai/ha) was 30, the SETVI phytotoxicity rating ([13]; 250 g ai/ha) was 55 and the IPOHE phytotoxicity rating ([14]; 63 g ai/ha) was 80. It also gave an IPOHE phytotoxicity rating ([14]; 250 g ai/ha) of 100, an SORHA phytotoxicity rating [15] of 10 and a CHEAL phytotoxicity rating ([16]; 63 g ai/ha) of 80. It also gave a CHEAL phytotoxicity rating ([16]; 250 g ai/ha) of 100, a DIGSA phytotoxicity rating ([17]; 63 g ai/ha) of 0 and a DIGSA phytotoxicity rating ([17]; 250 g ai/ha) of 50. For the same compound, the AMARE phytotoxicity rating ([18]; 63 g ai/ha) was 100, the AMARE phytotoxicity rating ([18]; 250 g ai/ha) was 100 and the CASOB phytotoxicity rating ([19]; 63 g ai/ha) was 80. It also gave a CASOB phytotoxicity rating ([19]; 250 g ai/ha) of 100, an ABUTH phytotoxicity rating ([20]; 63 g ai/ha) of 100 and an ABUTH phytotoxicity rating ([20]; 250 g ai/ha) of 100. For the same compound, the “CORN phytotoxicity rating (crop damage)” value ([21]; 63 g ai/ha) was 15, the “CORN phytotoxicity rating (crop damage)” value ([21]; 250 g ai/ha) was 15 and the “RICE phytotoxicity rating (crop damage)” value ([22]; 63 g ai/ha) was 30. The “RICE phytotoxicity rating (crop damage)” value ([22]; 250 g ai/ha) was 60.
